Experimental data taken from ChEMBL document CHEMBL1641519, “Discovery of MK-7246, a selective CRTH2 antagonist for the treatment of respiratory diseases” (Bioorg Med Chem Lett, 2011).

Columns and labels:
in vivo [1] = conditions: Sprague-Dawley, rat, po, 10 mg/kg
in vivo [2] = conditions: Sprague-Dawley, rat, iv, 5 mg/kg
in vivo [3] = conditions: Sprague-Dawley, rat
Hepatocyte [4] = experiment: Metabolic stability in Sprague-Dawley rat hepatocytes; type: ADME, cell-based
[5] = Metabolic stability in Beagle dog hepatocytes; type: ADME, cell-based, Canis lupus familiaris, Hepatocyte
[6] = Metabolic stability in cynomolgus monkey hepatocytes; type: ADME, cell-based, Macaca fascicularis, Hepatocyte
[7] = Metabolic stability in rhesus monkey hepatocytes; type: ADME, cell-based, Macaca mulatta, Hepatocyte
Hepatocyte [8] = experiment: Metabolic stability in human hepatocytes; type: ADME, cell-based
[9] = Volume of distribution at steady state in Sprague-Dawley rat at 10 mg/kg, po and 5 mg/kg, iv; type: ADME, organism-based; conditions: in vivo, read-out: Vdss
[10] = Oral bioavailability in Beagle dog at 1 mg/kg; type: ADME, organism-based, Canis lupus familiaris; conditions: in vivo
[11] = Clearance in Beagle dog at 1 mg/kg, po and 0.5 mg/kg, iv; type: ADME, organism-based, Canis lupus familiaris; conditions: in vivo
[12] = Volume of distribution at steady state in Beagle dog at 1 mg/kg, po and 0.5 mg/kg, iv; type: ADME, organism-based, Canis lupus familiaris; conditions: in vivo, read-out: Vdss
[13] = Terminal half life in Beagle dog at 1 mg/kg, po and 0.5 mg/kg, iv; type: ADME, organism-based, Canis lupus familiaris; conditions: in vivo
[14] = Oral bioavailability in cynomolgus monkey at 1 mg/kg; type: ADME, organism-based, Macaca fascicularis; conditions: in vivo
[15] = Clearance in cynomolgus monkey at 1 mg/kg, po and 0.5 mg/kg, iv; type: ADME, organism-based, Macaca fascicularis; conditions: in vivo
[16] = Volume of distribution at steady state in cynomolgus monkey at 1 mg/kg, po and 0.5 mg/kg, iv; type: ADME, organism-based, Macaca fascicularis; conditions: in vivo, read-out: Vdss
[17] = Terminal half life in cynomolgus monkey at 1 mg/kg, po and 0.5 mg/kg, iv; type: ADME, organism-based, Macaca fascicularis; conditions: in vivo
[18] = Oral bioavailability in rhesus monkey at 1 mg/kg; type: ADME, organism-based, Macaca mulatta; conditions: in vivo
[19] = Clearance in rhesus monkey at 1 mg/kg, po and 0.5 mg/kg, iv; type: ADME, organism-based, Macaca fascicularis; conditions: cynomolgus monkey, in vivo
[20] = Volume of distribution at steady state in rhesus monkey at 1 mg/kg, po and 0.5 mg/kg, iv; type: ADME, organism-based, Macaca fascicularis; conditions: cynomolgus monkey, in vivo, read-out: Vdss
[21] = Terminal half life in rhesus monkey at 1 mg/kg, po and 0.5 mg/kg, iv; type: ADME, organism-based, Macaca fascicularis; conditions: cynomolgus monkey, in vivo

Stability (Hepatocyte [4])	Stability [5]	Stability [6]	Stability [7]	Stability (Hepatocyte [8])	SMILES	bioavailability (in vivo [1])	clearance (in vivo [2])	half-life (in vivo [3])	also measured
					CN([C@@H]1CCc2c(CC(=O)O)c3cccc(F)c3n2C1)S(=O)(=O)c1ccc(F)cc1	62%	0.4 mL/min/kg	16 h	
Stable	Stable	Stable	Stable	Stable	CN([C@@H]1CCc2c(CC(=O)O[C@@H]3O[C@H](C(=O)O)[C@@H](O)[C@H](O)[C@H]3O)c3ccccc3n2C1)S(=O)(=O)c1ccc(F)cc1				
Stable	Stable	Stable	Stable	Stable	CN([C@@H]1CCc2c(CC(=O)O)c3ccccc3n2C1)S(=O)(=O)c1ccc(F)cc1 [MK-7246]	107%	2.2 mL/min/kg	5.6 h	Vd [9]: 0.98 L/kg; bioavailability [10]: 5.6%; clearance [11]: 15 mL/min/kg; Vd [12]: 2.3 L/kg; half-life [13]: 8.4 h; bioavailability [14]: 10%; clearance [15]: 4.8 mL/min/kg; Vd [16]: 0.5 L/kg; half-life [17]: 11 h; bioavailability [18]: 57%; clearance [19]: 6.9 mL/min/kg; Vd [20]: 2.6 L/kg; half-life [21]: 8.1 h
